Measurements taken from US20250135022A1, “METHODS FOR THE USE OF A B7-H3 ANTIBODY-DRUG CONJUGATE IN COMBINATION WITH A PD-1 X CTLA-4 BISPECIFIC MOLECULE” (MACROGENICS, INC., priority 2022, published 2025).

Tests used:
[1] = test system: MDA-MB-468 triple negative breast cancer cells; experiment: Anti-tumor activity against subcutaneously implanted MDA-MB-468 xenograft in SCID CES1c-KO mouse model; type: in vivo, SCID CES1c-KO mice; set-up: key to Anti-Tumor Activity: Highly Active: A T/C<10% is considered highly active; Active: a T/C≤42% is the minimum level of anti-tumor activity; Inactive: a T/C value of >42% is inactive
Procedure: In brief, ˜5×10^6 tumor cells (suspended in 1:1 media and MATRIGEL®) were subcutaneously implanted into the flank of female SCID CES1c-KO mice (Charles River Laboratories). When tumors had reached a volume of approximately 45-135 mm^3 (average 73 mm^3) on day 54, the mice were randomized and MGC018 or control vehicle were administered intravenously. In these studies, mice were administered either a single dose (1 mg/kg or 3 mg/kg, QW×1) of MGC018 or a fractionated dose of MGC018 (0.3 mg/kg or 1 mg/kg) once a week for 4 weeks (QW×4W). Vehicle was administered as a control on day 54. Tumors were measured twice weekly by orthogonal measurements with electronic calipers, with tumor volumes calculated as: (length×width×height)/2. The tumor volume (relative to control) was determined (“T/C”). A finding that the tumor volume of treated animals had decreased to ≤5 mm^3 during the study period was considered to denote a Complete Regression (“CR”) and a Partial Regression (“PR”) was defined when tumors were reduced by 50% or greater from day of dosing at any point during the study.

A375.S2 melanoma cells = experiment: Anti-tumor activity against subcutaneously implanted A375.S2 xenograft in SCID CES1c-KO mouse model; type: in vivo, SCID CES1c-KO mice
Procedure: In brief, ˜5×10^6 A375.S2 tumor cells (suspended in 1:1 media and MATRIGEL®) were subcutaneously implanted into the flank of female SCID CES1c-KO mice (Charles River Laboratories). When tumors had reached a volume of approximately 70-255 mm^3 (average 124 mm^3) on day 22, the mice were randomized and MGC018 or control vehicle were administered intravenously. In these studies, mice were administered either a single dose (1 mg/kg or 3 mg/kg, QW×1) of MGC018 or a fractionated dose of MGC018 (0.3 mg/kg or 1 mg/kg) once a week for 4 weeks (QW×4W). Vehicle was administered as a control on day 22. Tumors were measured twice weekly by orthogonal measurements with electronic calipers, with tumor volumes calculated as: (length×width×height)/2. The tumor volume (relative to control) was determined (“T/C”). A finding that the tumor volume of treated animals had decreased to ≤5 mm^3 during the study period was considered to denote a Complete Regression (“CR”) and a Partial Regression (“PR”) was defined when tumors were reduced by 50% or greater from day of dosing at any point during the study.

[2] = 0.3 mg/kg, QW × 4W, intravenous
[3] = fractionated 0.3 and 1 mg/kg QW×4W vs single 1 or 3 mg/kg QW×1

In the case of “MGC018: B7-H3-ADC: Light and Heavy Chain of anti-B7-H3 hmAb-A (SEQ ID NO:19, 20) conjugated via maleimide, valine-citrulline, para-aminobenzyloxycarbonyl linker to seco-DUBA payload”, the “% T/C at Day 70” value [1, 2] was 64%, the “Anti-Tumor Activity” value [1, 2] was “Inactive” and the “CR (complete regression)” value [1, 2] was 0/5. The “PR (partial regression)” value [1, 2] was 2/5, the “% T/C at Day 70” value ([1]; 1 mg/kg, QW × 1, intravenous) was 26% and the “Anti-Tumor Activity” value ([1]; 1 mg/kg, QW × 1, intravenous) was “Active”. The “CR (complete regression)” value ([1]; 1 mg/kg, QW × 1, intravenous) was 0/5, the “PR (partial regression)” value ([1]; 1 mg/kg, QW × 1, intravenous) was 4/5 and the “% T/C at Day 70” value ([1]; 1 mg/kg, QW × 4W, intravenous) was 22%. For the same substance, the “Anti-Tumor Activity” value ([1]; 1 mg/kg, QW × 4W, intravenous) was “Active”, the “CR (complete regression)” value ([1]; 1 mg/kg, QW × 4W, intravenous) was 3/5 and the “PR (partial regression)” value ([1]; 1 mg/kg, QW × 4W, intravenous) was 5/5. For the same substance, the “% T/C at Day 70” value ([1]; 3 mg/kg, QW × 1, intravenous) was 12%, the “Anti-Tumor Activity” value ([1]; 3 mg/kg, QW × 1, intravenous) was “Active” and the “CR (complete regression)” value ([1]; 3 mg/kg, QW × 1, intravenous) was 5/5. For the same substance, the “PR (partial regression)” value ([1]; 3 mg/kg, QW × 1, intravenous) was 5/5, the “anti-tumor activity of fractionated dose compared with single dose” value [1, 3] was “near equivalent anti-tumor activity” and the “% T/C at Day 53” value (A375.S2 melanoma cells; [2]) was 6%. The “CR (complete regression)” value (A375.S2 melanoma cells; [2]) was 0/7, the “PR (partial regression)” value (A375.S2 melanoma cells; [2]) was 4/7 and the “% T/C at Day 53” value (A375.S2 melanoma cells; 1 mg/kg, QW × 1, intravenous) was 5%. For the same substance, the “CR (complete regression)” value (A375.S2 melanoma cells; 1 mg/kg, QW × 1, intravenous) was 0/7, the “PR (partial regression)” value (A375.S2 melanoma cells; 1 mg/kg, QW × 1, intravenous) was 7/7 and the “% T/C at Day 53” value (A375.S2 melanoma cells; 1 mg/kg, QW × 4W, intravenous) was 1%. The “CR (complete regression)” value (A375.S2 melanoma cells; 1 mg/kg, QW × 4W, intravenous) was 6/7, the “PR (partial regression)” value (A375.S2 melanoma cells; 1 mg/kg, QW × 4W, intravenous) was 7/7 and the “% T/C at Day 53” value (A375.S2 melanoma cells; 3 mg/kg, QW × 1, intravenous) was 1%. The “CR (complete regression)” value (A375.S2 melanoma cells; 3 mg/kg, QW × 1, intravenous) was 7/7, the “PR (partial regression)” value (A375.S2 melanoma cells; 3 mg/kg, QW × 1, intravenous) was 7/7 and the “anti-tumor activity of fractionated dose compared with single dose” value (A375.S2 melanoma cells; [3]) was “near equivalent anti-tumor activity”.
